Data reported in ChEMBL document CHEMBL3886737, “5-chloro-2-difluoromethoxyphenyl pyrazolopyrimidine compounds, compositions and methods of use thereof” (2016).

Experiments:
[1] = biological target: Tyrosine-protein kinase JAK1 (Homo sapiens, UniProt P23458); test: (§1) JAK Enzyme Assay: The activity of the isolated recombinant JAK1 and JAK2 kinase domain was measured by monitoring phosphorylation of a peptide derived from JAK3 ([…] fluorescently labeled on the N-terminus with 5-carboxyfluorescein) using the Caliper LabChip® technology (Caliper Life Sciences, Hopkinton, Mass.). […] Reactions were incubated at 22° C. in 384-well polypropylene microtiter plates for 30 minutes and then stopped by addition of 25 μL of an EDTA containing solution (100 mM HEPES buffer (pH 7.2), 0.015% Brij-35, 150 mM EDTA), resulting in a final EDTA concentration of 50 mM. After termination of the kinase reaction, the proportion of phosphorylated product was determined as a fraction of total peptide substrate using the Caliper LabChip® 3000 according to the manufacturer's specifications.
Tyrosine-protein kinase JAK1, sequence (P23458 whole entry, the tested form may be a part): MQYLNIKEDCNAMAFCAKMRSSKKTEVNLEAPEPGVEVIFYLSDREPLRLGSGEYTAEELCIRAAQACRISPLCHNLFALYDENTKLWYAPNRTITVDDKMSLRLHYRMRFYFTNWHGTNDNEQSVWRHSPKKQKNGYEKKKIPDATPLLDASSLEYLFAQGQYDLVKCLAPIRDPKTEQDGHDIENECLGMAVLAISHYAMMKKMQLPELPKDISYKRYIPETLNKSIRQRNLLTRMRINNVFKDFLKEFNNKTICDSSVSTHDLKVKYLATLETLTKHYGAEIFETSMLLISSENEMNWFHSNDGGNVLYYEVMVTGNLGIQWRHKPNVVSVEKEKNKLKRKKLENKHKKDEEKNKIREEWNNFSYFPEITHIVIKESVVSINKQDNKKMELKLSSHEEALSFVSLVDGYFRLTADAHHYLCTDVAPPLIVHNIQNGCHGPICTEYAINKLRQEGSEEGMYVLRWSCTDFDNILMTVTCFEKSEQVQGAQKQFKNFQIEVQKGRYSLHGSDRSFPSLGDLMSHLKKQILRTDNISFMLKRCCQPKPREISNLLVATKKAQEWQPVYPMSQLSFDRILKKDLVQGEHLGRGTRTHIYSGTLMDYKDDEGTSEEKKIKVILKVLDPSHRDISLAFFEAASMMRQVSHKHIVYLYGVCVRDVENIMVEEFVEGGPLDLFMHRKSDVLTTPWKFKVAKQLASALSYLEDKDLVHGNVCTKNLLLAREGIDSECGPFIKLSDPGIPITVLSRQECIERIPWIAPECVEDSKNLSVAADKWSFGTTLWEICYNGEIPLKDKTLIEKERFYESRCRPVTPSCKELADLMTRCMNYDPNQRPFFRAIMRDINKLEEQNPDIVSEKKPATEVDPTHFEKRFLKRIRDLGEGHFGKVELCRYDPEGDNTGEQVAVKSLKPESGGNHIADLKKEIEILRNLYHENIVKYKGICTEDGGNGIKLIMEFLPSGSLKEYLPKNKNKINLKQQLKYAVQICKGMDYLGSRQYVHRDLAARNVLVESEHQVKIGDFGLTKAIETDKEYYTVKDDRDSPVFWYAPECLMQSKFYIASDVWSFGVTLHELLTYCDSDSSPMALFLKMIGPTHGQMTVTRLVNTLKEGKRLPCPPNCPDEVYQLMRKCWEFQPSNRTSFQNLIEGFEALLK

[2] = biological target: Tyrosine-protein kinase JAK2 (Homo sapiens, UniProt O60674); test: as §1
Tyrosine-protein kinase JAK2, sequence (O60674 whole entry): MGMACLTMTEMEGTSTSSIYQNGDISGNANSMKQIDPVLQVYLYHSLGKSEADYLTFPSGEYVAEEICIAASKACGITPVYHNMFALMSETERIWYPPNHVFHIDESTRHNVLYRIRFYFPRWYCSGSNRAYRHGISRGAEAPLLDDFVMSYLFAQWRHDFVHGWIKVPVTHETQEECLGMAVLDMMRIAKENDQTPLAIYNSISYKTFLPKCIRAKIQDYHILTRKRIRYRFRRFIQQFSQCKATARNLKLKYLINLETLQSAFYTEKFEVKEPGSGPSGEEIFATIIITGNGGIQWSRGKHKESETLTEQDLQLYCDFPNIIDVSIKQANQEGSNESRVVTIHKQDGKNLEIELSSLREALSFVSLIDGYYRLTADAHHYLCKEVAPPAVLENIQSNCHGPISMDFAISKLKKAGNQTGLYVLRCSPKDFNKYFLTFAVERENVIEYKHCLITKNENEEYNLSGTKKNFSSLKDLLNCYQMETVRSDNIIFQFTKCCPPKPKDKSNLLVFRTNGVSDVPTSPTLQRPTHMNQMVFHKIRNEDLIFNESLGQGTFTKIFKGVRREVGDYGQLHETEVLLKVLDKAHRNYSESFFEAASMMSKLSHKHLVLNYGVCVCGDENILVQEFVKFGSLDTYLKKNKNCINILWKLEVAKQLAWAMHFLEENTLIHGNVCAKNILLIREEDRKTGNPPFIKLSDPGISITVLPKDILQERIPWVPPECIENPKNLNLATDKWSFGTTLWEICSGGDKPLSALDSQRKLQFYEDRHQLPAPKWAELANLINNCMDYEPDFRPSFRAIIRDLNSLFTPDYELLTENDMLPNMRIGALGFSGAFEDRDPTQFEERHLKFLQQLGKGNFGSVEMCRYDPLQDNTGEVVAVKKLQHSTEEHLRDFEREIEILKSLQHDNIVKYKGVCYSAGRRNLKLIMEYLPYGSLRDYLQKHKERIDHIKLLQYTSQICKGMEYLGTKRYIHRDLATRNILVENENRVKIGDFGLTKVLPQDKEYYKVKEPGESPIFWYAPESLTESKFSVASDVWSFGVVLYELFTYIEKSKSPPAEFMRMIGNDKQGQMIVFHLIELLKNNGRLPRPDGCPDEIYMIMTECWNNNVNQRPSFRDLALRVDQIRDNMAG

| Compound | Ki [1] [nM] | Ki [2] [nM] |
| --- | --- | --- |
| C[N+](C)(CCCc1ccccc1)C1CCN(C(=O)Cn2cc(NC(=O)c3cnn4cccnc34)c(-c3cc(Cl)ccc3OC(F)F)n2)CC1 | 1.21 | 2.9 |
| Nc1nn2cccnc2c1C(=O)Nc1cn(CC(=O)N2CC[C@@H](O)C2)nc1-c1cc(Cl)ccc1OC(F)F | – | 0.13 |
| CCOC(=O)CCN1CCN(C(=O)Cn2cc(NC(=O)c3cnn4cccnc34)c(-c3cc(Cl)ccc3OC(F)F)n2)CC1 | 0.49 | – |
| CN(C)C1CCN(C(=O)C2CCN(c3nc(-c4cc(Cl)ccc4OC(F)F)c(NC(=O)c4cnn5cccnc45)s3)CC2)CC1 | 0.89 | 0.86 |
| CN1CCC(n2cc(NC(=O)c3c(N)nn4cccnc34)c(-c3cc(Cl)ccc3OC(F)F)n2)CC1 | 0.76 | – |

Now from value to compound:

| Ki [1] [nM] | Ki [2] [nM] | Compound |
| --- | --- | --- |
| 0.3 | 0.76 | N#C[C@H]1CCCN(C2CCN(C(=O)Cn3cc(NC(=O)c4cnn5cccnc45)c(-c4cc(Cl)ccc4OC(F)F)n3)CC2)C1 |
| 0.23 | 0.63 | O=C(Nc1cn(CC(=O)N2CCC(N3CC[S+]([O-])CC3)CC2)nc1-c1cc(Cl)ccc1OC(F)F)c1cnn2cccnc12 |
| – | 0.64 | CN(CC1(C#N)CC1)C1CCN(C(=O)Cn2cc(NC(=O)c3cnn4cccnc34)c(-c3cc(Cl)ccc3OC(F)F)n2)CC1 |
